# Tested on: C57BL6 mice
# Assay: in vivo toxicity in mice, ip daily for 4 days
# Conditions: ip daily × 4, MTD = >10% body weight loss
# Source text: Highlighted are the compounds being made for antitumor testing.
structure (smiles),measurement,value
"COC[C@H]1OC(=O)c2coc3c2[C@@]1(C)C1=C(C3=O)[C@@H]2CCC(=O)[C@@]2(C)C[C@H]1OC(C)=O [wortmannin, reference compound]",Maximum tolerated dose mg/kg ip qD × 4,2.5 mg/kg

# From patent publication US7335679B2 (Arizona Board of Regents on behalf of the University of …, priority 2001, dated 2008)
